Here are results for eight compounds from EP1388586A2, “Identification of broadly reactive DR restricted epitopes” (priority 1998, dated 1999).

pIC50: −log10 of the molar value. Where two headings read alike, the source gives them in different places. Square brackets hold non-standard residues; d marks the D form. Ends that are not written are not given here. Peptide text beside a SMILES is read from it.

For assay [1], the system named is panel of purified HLA DR molecules. The assay is classed as binding, human.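 Note: competitive inhibition of radiolabeled probe peptide binding to purified HLA DR molecules, with inhibitory potency of unlabeled peptides taken as an approximation of affinity.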
Assay [2] deals with T1, DRB1*0101 (DR1) (Homo sapiens, UniProt P01903+P01911, A100R/D57E/F55L/F60I/F76Y/I96L/L162R/M171V/P40L/Q125E/R42F/V115G/Y59C).
T1 construct: used as sources of human HLA class II molecules; endogenous in cells; host or cells: LG2 (EBV-transformed homozygous B cell line)
Nature of the assay: Class II peptide-binding assay, DR1.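 Note: competition assay: unlabeled test peptides inhibit binding of a radiolabeled probe peptide to purified DR, with half-maximal inhibition taken as an approximate dissociation constant Kd.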
Description: (§1) Class II peptide-binding assays. […] These assays were chosen as to be representative of the most common DR alleles.
(§2) Radiolabeled peptides were iodinated using the chloramine-T method. […] In appropriate stoichiometric conditions, the IC50 of an unlabeled test peptide to the purified DR is a reasonable approximation of the affinity of interaction (Kd). Peptides were tested in two to four completely independent experiments. […] Final detergent concentration in the incubation mixture was 0.05% Nonidet P-40. Assays were performed at pH 7.0 with the exception of DR3, which was performed at pH 4.5, and DRw53, which was performed at pH 5.0.
(§3) All subsequent inhibition and direct binding assays were the performed using these class II concentrations.

In assay [3] the target is T2, DRB10404 (DR4w14) (Homo sapiens, UniProt P01903+P01911, A100R/A169T/F76Y/I96L/K127E/L162R/M171V/N62H/P40V/Q125Y/R42H/S133A/S149N/S66Y/V209L/W38E).
T2 construct: used as sources of human HLA class II molecules; endogenous in cells; host or cells: BIN40 (EBV-transformed homozygous B cell line)
The assay can be described thus: Class II peptide-binding assay, DR4w14.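 Note: unlabeled peptides compete with a radiolabeled probe for binding to affinity-purified HLA-DR, neutral pH, class II amount titrated to bind a small fraction of label, IC50 approximates Kd.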

Assay [4] concerns the target DRB1*0701 (DR7) (Homo sapiens, UniProt P01903+P01911, A100R/A102G/A103Q/D57E/D86V/E43K/F76Y/K127E/L162R/M171V/P40G/Q125H/Q99D/R33Q/R42Y/R54Q/S133A/S66F/T210M/V115G/Y107V/Y59L/Y89S). The assay can be described thus: Class II peptide-binding assay, DR7.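 Note: unlabeled peptides compete with an iodinated probe peptide for binding to affinity-purified HLA-DR at neutral pH, DR amount titered to bind a small tracer fraction, IC50 approximating Kd.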
In assay [5] the target is T3, DRB1*1101 (DR5w11) (Homo sapiens, UniProt P01903+P01911, A100R/A169T/A87E/I96F/K41T/L162R/M171V/P40S/Q125H/Q178H/Q39Y/Q99D/R42S/S66Y/T262R/V115G/W38E).
T3 construct: used as sources of human HLA class II molecules; endogenous in cells; host or cells: SWEIG (EBV-transformed homozygous B cell line)
Nature of the assay: Class II peptide-binding assay, DR5w11.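 Note: competition by unlabeled test peptide against iodinated probe peptide binding to affinity-purified HLA-DR, class II amount titrated beforehand, half-maximal inhibitory concentration read as approximate Kd.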

The target in assay [6] is T4, DRB5*0101 (DR2w2a) (Homo sapiens, UniProt P01903+Q30154).
T4 construct: used as sources of human HLA class II molecules; endogenous in cells; host or cells: GM3107 (EBV-transformed homozygous B cell line)
Nature of the assay: Class II peptide-binding assay, DR2w2a (DR2w2B2).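 Note: competitive binding assay: unlabeled peptide inhibiting binding of a radiolabeled probe peptide to purified DR molecules at pH 7.0, IC50 approximating Kd, lower means stronger binding.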

Assay [7] deals with T5, DRB1*0301 (DR3w17) (Homo sapiens, UniProt P01903+P01911, A100K/A102G/A103R/A169T/F55Y/I96L/K41T/L162R/M171V/P40S/Q125H/Q178H/Q39Y/R42S/S66N/T106N/T262R/W38E/Y61H).
T5 construct: used as sources of human HLA class II molecules; endogenous in cells; host or cells: MAT (EBV-transformed homozygous B cell line)
Nature of the assay: Class II peptide-binding assay, DR3 (pH 4.5).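 Note: unlabeled peptide competing with a radiolabeled probe peptide for binding to affinity-purified HLA-DR3, IC50 regarded as an approximation of Kd.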

Assay [8] deals with T6, DRB1*0401 (DR4w4) (Homo sapiens, UniProt P01903+P01911, A100K/A169T/F76Y/I96L/K127E/L162R/M171V/N62H/P40V/Q125Y/R42H/S133A/S149N/S66Y/V115G/V209L/W38E).
T6 construct: used as sources of human HLA class II molecules; endogenous in cells; host or cells: PREISS (EBV-transformed homozygous B cell line)
The assay can be described thus: Class II peptide-binding assay, DR4w4.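 Note: unlabeled test peptides compete with a radiolabeled probe peptide for binding to affinity-purified HLA-DR, with DR amount titrated to capture a small fraction of label, IC50 approximating Kd.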
Description: as §1, §2, §3

[9] abbreviates: read-out: In IC50 Format DR1, Table VIII.
Where [10] appears, read: read-out: In IC50 Format DR4w14, Table VIII.
Setting [11] is: read-out: In IC50 Format DR7, Table VIII.
Where [12] appears, read: read-out: In IC50 Format DR5w11, Table VIII.
Where [13] appears, read: read-out: In IC50 Format DR2w2β2, Table VIII.
[14] abbreviates: read-out: In IC50 Format DR3, Table VIII.
Setting [15] is: read-out: In IC50 Format DR4w4, Table VIII.
The mark [16] stands for this setting: read-out: DR1 nM (In IC50 Format), purified HLA DR1.
[17] abbreviates: read-out: DR4w14 nM (In IC50 Format), purified HLA DR4w14.
[18] abbreviates: read-out: DR7 nM (In IC50 Format), purified HLA DR7.
Where [19] appears, read: read-out: DR5w11 nM (In IC50 Format), purified HLA DR5w11.
The mark [20] stands for this setting: read-out: DR2w2B2 nM (In IC50 Format), purified HLA DR2w2β2.
[21] abbreviates: read-out: DR3 nM (In IC50 Format), purified HLA DR3.
The mark [22] stands for this setting: read-out: DR4w4 nM (In IC50 Format), purified HLA DR4w4.

T3 sequence (P01903 26-254, other chains not shown): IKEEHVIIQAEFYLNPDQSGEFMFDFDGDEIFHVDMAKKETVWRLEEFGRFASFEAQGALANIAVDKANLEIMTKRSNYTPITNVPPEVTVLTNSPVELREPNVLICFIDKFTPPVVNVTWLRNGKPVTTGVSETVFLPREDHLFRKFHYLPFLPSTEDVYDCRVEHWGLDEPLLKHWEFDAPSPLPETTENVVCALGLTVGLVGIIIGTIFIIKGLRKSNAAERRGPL
T5 sequence (P01903 26-254, other chains not shown): as above

Take `CC[C@H](C)[C@H](NC(=O)[C@H](CC(C)C)NC(=O)[C@H](Cc1ccccc1)NC(=O)[C@@H](NC(=O)[C@@H](NC(=O)[C@@H](NC(=O)[C@H](CC(C)C)NC(=O)[C@H](Cc1ccc(O)cc1)NC(=O)[C@H](CCCCN)NC(=O)[C@@H](NC(=O)[C@@H](N)CC(N)=O)C(C)C)C(C)C)[C@@H](C)CC)C(C)C)C(=O)N[C@@H](Cc1ccccc1)C(=O)N[C@@H](Cc1ccccc1)C(=O)N[C@@H](CC(=O)O)C(=O)N[C@@H](CC(C)C)C(=O)O` [Peptide 27.415]: in assay [1], the “Total Alleles Bound” value stood at 2.

Regarding `CC[C@H](C)[C@H](NC(=O)[C@H](CC(=O)O)NC(=O)[C@H](CC(C)C)NC(=O)[C@@H](NC(=O)CNC(=O)[C@@H](NC(=O)[C@@H](NC(=O)[C@@H](NC(=O)[C@@H](NC(=O)[C@H](C)NC(=O)[C@H](CC(C)C)NC(=O)[C@@H](NC(=O)[C@H](CC(N)=O)NC(=O)[C@H](CO)NC(=O)[C@H](CC(C)C)NC(=O)[C@@H](N)CC(N)=O)C(C)C)[C@@H](C)O)[C@@H](C)CC)[C@@H](C)O)[C@@H](C)O)C(C)C)C(=O)O` [Peptide 1136.24], the “Total Alleles Bound” value in assay [1] was 4.

On to `CC[C@H](C)[C@H](N)C(=O)N[C@@H](CCCCN)C(=O)N[C@@H](CC(C)C)C(=O)N1CCC[C@H]1C(=O)N[C@H](C(=O)N[C@H](C(=O)N[C@@H](CC(C)C)C(=O)N[C@@H](C)C(=O)N[C@@H](Cc1ccccc1)C(=O)N[C@@H](C)C(=O)N[C@H](C(=O)N[C@@H](CS)C(=O)N[C@@H](Cc1ccccc1)C(=O)N[C@@H](CC(C)C)C(=O)N[C@H](C(=O)N1CCC[C@H]1C(=O)O)[C@@H](C)CC)[C@@H](C)O)[C@@H](C)CC)[C@@H](C)CC` [Peptide 1136.12], for which the “Total Alleles Bound” value in assay [1] came to 4.

Consider `CC(C)C[C@H](NC(=O)[C@@H](NC(=O)[C@H](C)NC(=O)[C@H](C)NC(=O)[C@H](CCCCN)NC(=O)[C@@H](NC(=O)[C@H](Cc1ccccc1)NC(=O)[C@H](CCCCN)NC(=O)[C@@H](C)N)C(C)C)[C@@H](C)O)C(=O)N[C@@H](CCCCN)C(=O)N[C@@H](C)C(=O)N[C@@H](C)C(=O)N[C@H](C)C(N)=O` [Peptide 909.02] (H-[dA]KFVKAATLKAA[dA]-NH2), for which the pIC50 was 8.60 in assay [2] (read-out: DR1 nM, Table VIII, In IC50 Format); 7.48 in assay [3] (read-out: DR4w14 nM, Table VIII, In IC50 Format); 6.68 in assay [4] (read-out: DR7 nM, Table VIII, In IC50 Format); 8.24 in assay [5] (read-out: DR5w11 nM, Table VIII, In IC50 Format); 8.10 in assay [6] (read-out: DR2w2B2 nM, Table VIII, In IC50 Format); 5.25 in assay [7] (read-out: DR3 nM, Table VIII, In IC50 Format). Besides, the pIC50 in assay [8] (read-out: DR4w4 nM, Table VIII, In IC50 Format) was 8.33.

On to FFKNIVTPRFFKNIVTPR [Peptide 613.03], for which the pIC50 was 6.70 in assay [2] (setting [9]); 5.70 in assay [3] (setting [10]); 6.57 in assay [4] (setting [11]); 5.78 in assay [5] (setting [12]); 6.73 in assay [6] (setting [13]); 4.12 in assay [7] (setting [14]). Moreover, the pIC50 in assay [8] (setting [15]) is 5.35.

Regarding VHHANENIFYCPIAIMSALA [Peptide 703.03], the pIC50 in assay [2] (setting [9]) is 6.83; in assay [3] (setting [10]), 6.48; in assay [4] (setting [11]) it was below 5.20; in assay [5] (setting [12]), 5.95; in assay [6] (setting [13]), below 5.00; in assay [7] (setting [14]), 4.37. Moreover, the pIC50 in assay [8] (setting [15]) is 7.20.

For the compound YAAYVKLTAARKFA-NH2 [Peptide 806.03], the pIC50 in assay [2] (setting [16]) is 8.68; in assay [3] (setting [17]), 5.34; in assay [4] (setting [18]), 8.36; in assay [5] (setting [19]) it was 8.89; in assay [6] (setting [20]), 9.15; in assay [7] (setting [21]), 4.64. In addition, the pIC50 in assay [8] (setting [22]) was 7.67.

On to LVEALYLVSGERGFFYTPKT [Peptide 734.03], for which the pIC50 in assay [2] (setting [16]) is 7.40; in assay [3] (setting [17]), 6.15; in assay [4] (setting [18]) it was 6.03; in assay [5] (setting [19]) it was 5.60; in assay [6] (setting [20]), 5.74; in assay [7] (setting [21]), 5.80. In addition, in assay [8] (setting [22]), the pIC50 was 5.94.
